Where “and” joins values, the source holds several entries; their conditions need not be identical. Equal values may be shown once.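 Interpolation was linear, between the two tested concentrations surrounding the appropriate level; five concentrations were tested over 48 hours in 96-well plates. Here, GI50 denotes the concentration required for 50% inhibition of growth. TGI marks complete inhibition of growth.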 *1 amine or outer side, *2 acyl side, *3 side chain or, on linkers, in order; H or OH if unused. Where a SMILES comes first, the peptide text is derived from it. Bridges are numbered along the chain shown (N, C = ends). Roman numbers before positions name the chains, in order. [ ]: non-standard residue; d: D form. Actinocin(9to1) = Cc1c2oc3c(C)ccc(C(=O)[*:1])c3nc-2c(C(=O)[*:2])c(N)c1=O; NMeF = CN[CH](Cc1ccccc1)C(=O)O; Sar = CNCC(=O)O
Key:
Assay in all cases: NCI-60 cell line screen, 48 h
MCF7 breast = tested on: MCF7 breast
ACHN renal = tested on: ACHN renal
SNB-75 CNS = tested on: SNB-75 CNS
EKVX NSCLC = tested on: EKVX NSCLC
OVCAR-4 ovarian = tested on: OVCAR-4 ovarian
MDA-MB-435 = tested on: MDA-MB-435
K-562 leukemia = tested on: K-562 leukemia
IGROV1 ovarian = tested on: IGROV1 ovarian
SK-MEL-5 melanoma = tested on: SK-MEL-5 melanoma
MALME-3M melanoma = tested on: MALME-3M melanoma

Structure (SMILES)	GI50 (MCF7 breast) [µM]	TGI (MCF7 breast) [µM]	GI50 (ACHN renal) [µM]	TGI (ACHN renal) [µM]	GI50 (SNB-75 CNS) [µM]	TGI (SNB-75 CNS) [µM]	GI50 (EKVX NSCLC)	GI50 (OVCAR-4 ovarian) [µM]	TGI (OVCAR-4 ovarian)	GI50 (MDA-MB-435) [µM]	TGI (MDA-MB-435)	GI50 (K-562 leukemia) [µM]	TGI (K-562 leukemia) [µM]	GI50 (IGROV1 ovarian)	TGI (IGROV1 ovarian) [µM]	GI50 (SK-MEL-5 melanoma) [µM]	TGI (SK-MEL-5 melanoma)	TGI (EKVX NSCLC)	GI50 (MALME-3M melanoma) [µM]	TGI (MALME-3M melanoma)
N#CC1C=Cc2c(ccc3ccccc23)N1C(=O)c1ccccc1 (centres undefined)	0.0413	> 100	0.352	> 100	0.226	63.8	0.31 µM	1.47	> 100 µM	0.0383	0.664 µM	0.0537	> 100	0.105 µM	3.23	0.132	> 42.5 µM			
Nc1ncc(-c2cccc(S(N)(=O)=O)c2)c2scc(-c3ccc(F)c(Cl)c3)c12	5.93	15.9	6.36	> 25	6.11	> 23	7.75 µM	6.65	> 23.7 µM	4.68	10.1 µM	0.705	> 11.7	6.58 µM	22.3	4	7.46 µM	> 24.2 µM	6.94	16.6 µM
C=CC(COC(c1ccccc1)(c1ccccc1)c1ccccc1)N(CC)CC (centres undefined)	2.8	7.21	8.1	23.9	10.3	22.5	4.48 µM	4.74	17.5 µM	4.04	16.3 µM	2.07	5.86	5.09 µM	20.1	1.95	3.98 µM	19.2 µM	1.89	4.3 µM
Cc1coc2c1C(OC(=O)C(C)C)C1(C)C(C)CCC(O)C1C2=O (centres undefined)		> 100		> 100		> 100			> 100 µM		> 100 µM		> 100		> 100		> 100 µM	> 100 µM		> 100 µM
Cc1c2oc3c(C)ccc(C(=O)NC4C(=O)NC(C(C)C)C(=O)N5CCCC5C(=O)N(C)CC(=O)N(C)C(Cc5ccccc5)C(=O)OC4C)c3nc-2c(C(=O)NC2C(=O)NC(C(C)C)C(=O)N3CCCC3C(=O)N(C)CC(=O)N(C)C(Cc3ccccc3)C(=O)OC2C)c(N)c1=O (centres undefined) (I: TVP[Sar][NMeF] / II: TVP[Sar][NMeF]; ester I:1-I:C, II:1-II:C; linker I:N-II:N via Actinocin(9to1); configuration not given here)	0.00126	0.0136		> 1		0.0645	< 0.01 µM and 0.0389 µM		< 0.0109 µM and 0.033 µM		< 0.01 µM and 0.095 µM	0.00115		< 0.01 µM and 0.0028 µM			< 0.01 µM and 0.0479 µM	0.0931 µM and > 0.603 µM		< 0.01 µM and 0.0493 µM
Nc1c(C(=O)Nc2cccc(Cl)c2Cl)sc2nc3c(cc12)C(=O)CCC3	> 100	> 100	> 100	> 100	> 100	> 100		> 100	> 100 µM	0.277	> 100 µM	0.958	> 100	> 100 µM	> 100	3.54	> 100 µM		> 100	> 100 µM
COc1ccccc1C(=O)N(C)c1ccc(Cl)c(C(=O)OC(C)C)c1		> 100		> 100		> 100			> 100 µM		> 100 µM				> 100		58.3 µM	> 100 µM		> 100 µM
Cn1cc(C2=C(N3CCOCC3)C(=O)NC2=O)c2ccccc21	> 25	> 25	> 25	> 25	> 25	> 25		> 25	> 25 µM	> 25	> 25 µM	> 25	> 25	> 25 µM	> 25	> 25	> 25 µM		> 25	> 25 µM
O=C1C(Cl)=C(Nc2cccc(O)c2)C(=O)N1Cc1ccc(Cl)cc1Cl	10.9	30.7	5.59	17.7	6.1	20.6	10 µM	2.9	15 µM	6.72	19.5 µM	4.81	29.7	1.17 µM	13.8	0.84	5.64 µM	26.6 µM	1.18	14.9 µM
COc1cc(NC(=O)C2=C(N3CCOCC3)/C(=C/c3ccc(Cl)cc3)CC2)cc(OC)c1OC	> 100	> 100	16.9	61.8	6.24	33.9	24.9 µM	4.27	> 100 µM	> 100	> 100 µM	> 100	> 100	21.3 µM	> 100	> 100	> 100 µM	> 100 µM	> 100	> 100 µM
O=C(NC(=O)c1ccccc1[N+](=O)[O-])Nc1ccc(Oc2ncc(Cl)cn2)c(C(F)(F)F)c1		> 52.2		32.1					98.4 µM		< 0.0123 µM		> 100		> 100		1.17 µM	> 100 µM		> 100 µM
O=C(CCc1ccc(O)cc1)N/N=C/c1cc(Br)ccc1O	3.31	90.2	3.33	> 100	5.25	> 100		3.19	82 µM	6.31	> 100 µM	3.12	28.6	6.23 µM	93.3	3.4	18.1 µM		4.01	28.3 µM
COc1cc2c3c(n(C)c(=O)c2cc1OC)-c1cc2c(cc1/C3=C\CCNCCCN)OCO2	2.77	13.4	1.3	6.89	11.4	> 100	3.83 µM	1.04	7.56 µM	2.48	15.9 µM	2.08	12.1	1.82 µM	> 100			18 µM	0.863	4.02 µM
CC[C@H](C)C(=O)O[C@H]1C[C@H](O)C=C2C=C[C@H](C)[C@H](CC[C@@H](O)C[C@@H](O)CC(=O)O)[C@H]21	> 100	> 100	> 100	> 100	> 100	> 100		> 100	> 100 µM	> 100	> 100 µM	> 100	> 100	> 100 µM	> 100	> 100	> 100 µM		> 100	> 100 µM
O=C(O)Cn1cc([N+](=O)[O-])c(=O)c2ccccc21		> 100		> 100		> 100					> 100 µM		> 100		> 100		> 100 µM			> 100 µM
CC#Cc1nc(Nc2cc(C)[nH]n2)c2ccccc2n1	3.32	95.7	2.74	14.1	1.48	15.4		3.46	> 100 µM	3.18	13.3 µM	11.7	> 100	2.58 µM	15.4	1.76	3.61 µM		7.24	25.2 µM
Cc1c([N+](=O)[O-])oc2ccc3ccccc3c12		93.7		> 100		> 100			> 100 µM		> 100 µM		> 100		> 100		> 100 µM	> 100 µM		
CCCCCn1c(C)cc(/C=C\c2ccc3cc(C)ccc3[n+]2C)c1C	0.199	1.04	0.239	1.15	0.0791	0.975	0.275 µM	0.0683	1.51 µM	0.116	1.09 µM	0.0341	1.11	0.0386 µM	1.11	0.0801	0.219 µM	2.43 µM		
Oc1c(CN2CCN(c3ccccc3)CC2)cc(Br)c2cccnc12		> 100		> 34.4		18.1			> 100 µM		> 100 µM		> 40.8		> 100			> 29.3 µM		42.2 µM
CS(=O)(=O)N(c1cc(-c2ccc3ncnc(Nc4cccc(Cl)c4)c3c2)cnc1Cl)S(C)(=O)=O	0.23	9.69	0.412	> 100	0.0406	0.641	0.357 µM	1.04	10.4 µM	0.443	4.07 µM	1.23	45.1	0.0951 µM	0.528	0.306	1.41 µM	2.25 µM		
Cc1ccc([C@]2(C)CC[C@H](C)/C2=C\Br)c(O)c1	4.52	17.9	7.5	26.1			5.74 µM	3.42	14 µM	1.86	4.82 µM	3.3	11.1	3.07 µM	12.4	3.88	15.5 µM	17.7 µM	3.88	14.1 µM
O=C(O)c1cc2ccccc2c2c1C(=O)c1ccccc1-2		> 100		> 100		> 100			> 100 µM		> 100 µM		> 100		> 100		> 100 µM			> 100 µM

— PubChem BioAssay (NCI)
